Key:
[1] = tested on: B16/F0 murine melanoma cells; test: In-vitro tumor-cell uptake, melanoma cells; format: cell-based
Method: (§1) In-Vitro Tumor-Uptake Studies. Tumor-cell uptake studies in B16/F0 murine melanoma cells were performed with complexes Tc-(Compound A-D and H-M) at 37° C. and 4° C. Additionally, tumor-cell uptake of complex Tc-(Compound A) was investigated in another rapidly dividing MCF-7 human breast cancer cell line.
In-Vitro Cell Studies. Murine B16/F0 melanoma cells and human MCF-7 breast cancer cells were obtained from American Type Culture Collection, Manassas Va., (ATCC) and were grown in T-175 flasks in 14 mL Dulbecco's Modified Eagle Medium (D-MEM; Gibco, Life Technology, Gaithersburg, Md.) containing 4500 mg/L D-glucose, L-glutamine, and pyridoxine hydrochloride, 110 mg/L sodium pyruvate, 10% fetal bovine serum (FBS), 0.2% gentamicin and 0.5% penicillin-streptomycin solution. All cells were harvested from cell culture flasks by trypsinization with 1 mL trypsin-EDTA solution (0.25% trypsin, 1 mM EDTA×4 Na) (Gibco). After being washed with 12 mL Dulbecco's Phosphate-Buffered Saline (PBS) (Gibco), pH 7.2 (Ca^2+- and Mg^2+-free; g/L KCl, 0.20; KH2PO4, 0.20; NaCl, 8.00; Na2HPO4, 1.15), the cells were counted and resuspended in 8 mL S-MEM (Gibco) (Ca^2+ free, with reduced Mg^2+ content) and stored at 4° C. until use.
For in-vitro tumor-cell accumulation studies, 5×10^6 cells in polypropylene test tubes were incubated at 37° C. or 4° C., with intermittent agitation with 1-2 μCi (5 μL) ^99mTc-complex Tc-(Compound A-D) in a total volume of 350 μL S-MEM. At appropriate time intervals the tubes were vortexed and 8-μL samples were layered on 350 μL cold FBS in a 400-μL Eppendorf microcentrifuge tube. After centrifugation at 15,000 rpm for 2 min, the tubes were frozen in a dry ice-acetone bath. While still frozen, the bottom tip of the microcentrifuge tube containing the cell pellet was cut and placed in a counting tube. The remaining portion of the tube with the supernatant was placed in a separate counting tube. Both fractions were counted for radioactivity in a γ-counter (WALLAC, 1480 WIZARD 3″™). The amount of supernatant in the cell pellet was determined to be <1% in separate experiments. The percentage cell uptake of the ^99mTc-complex was calculated as: % uptake=[cpm(pellet)]/[cpm(pellet)+cpm(supernatant)]×100

[2] = tested on: MCF-7 human breast cancer cell line; test: In-vitro tumor-cell uptake, breast cancer cells; format: cell-based; conditions: 37° C., MCF-7 cell line
Method: as §1
In-Vitro Cell Studies. […] After being washed with 12 mL Dulbecco's Phosphate-Buffered Saline (PBS) (Gibco), pH 7.2 (Ca^2+- and Mg^2+-free; g/L KCl, 0.20; KH2PO4, 0.20; NaCl, 8.00; Na2HPO4, 1.15), the cells were counted and resuspended in 8 mL S-MEM (Gibco) (Ca^2+ free, with reduced Mg^2+ content) and stored at 4° C. until use.
For in-vitro tumor-cell accumulation studies, 5×10^6 cells in polypropylene test tubes were incubated at 37° C. or 4° C., with intermittent agitation with 1-2 μCi (5 μL) ^99mTc-complex Tc-(Compound A-D) in a total volume of 350 μL S-MEM. […] Both fractions were counted for radioactivity in a γ-counter (WALLAC, 1480 WIZARD 3″™). The amount of supernatant in the cell pellet was determined to be <1% in separate experiments. The percentage cell uptake of the ^99mTc-complex was calculated as: % uptake=[cpm(pellet)]/[cpm(pellet)+cpm(supernatant)]×100

[3] = tested on: B16/F0 cells; test: Tumor-cell uptake in the presence of DTG; format: cell-based, murine; conditions: DTG 90 μM, 30 min prior, 37° C.
Source text: J. Labelled Compd. Radiopharm. 1994, 35, 242-244; Vilner, B. J.; John, C. S.; Bowen, W. D. Sigma-I and Sigma-2 Receptors Are Expressed in a Wide Variety of Human and Rodent Tumor Cell Lines. Cancer Res. 1995, 55, 408-413; and John, C. S.; Vilner, B. J.; Gulden, M. E.; Efange, S. M. N.; Langason, R. B.; Moody, T. W.; Bowen, W. D. Synthesis and Pharmacological Characterization of 4-[^125I]-N-(N-Benzylpiperidin-4-yl)-4-iodobenzamide: A High Affinity σ Receptor Ligand for Potential Imaging of Breast Cancer. […] Pre-incubation of the tumor cells with DTG (90 μM), 30 min prior to the uptake experiments with the ^99mTc-complexes, yields a lower tumor-cell uptake for complexes Tc-(Compound A) (29% less), Tc-(Compound C) (33% less), and Tc-(Compound D) (32% less) at 37° C. (FIG. 4). Additional dose-response experiments conducted with intact B16/F0 cells at 37° C. with Tc-(Compound C) and DTG as the inhibitor (FIG. 3) show a DTG concentration-dependent decrease in the uptake of the complex.
The effect of the inhibitor DTG on cell uptake of these complexes was studied by addition of the inhibitor at various concentrations to the cell suspension 30 min prior to addition of the ^99mTc-complexes. Fresh DTG stock solutions were made by dissolving DTG (3.0 mg, 12.5 μmol) in 0.38 mL PBS and 0.12 mL hydrochloric acid (0.1 N) and subjecting the mixture to ultrasound until a clear solution was obtained, followed by the addition of 0.50 mL FBS to produce a neutral solution at pH 7.4. The stock solutions were diluted by an appropriate amount of S-MEM, and aliquots between 5 μL and 25 μL were added to the cell suspension such that the final concentration of DTG was between 0.02 μM and 120 μM in a total cell suspension volume of 350 μL.

[4] = tested on: B16/F0 murine melanoma; test: In-vivo tumor uptake and biodistribution; parameters: species or system C57B16 mice; conditions: mouse, in vivo
Method: In-Vivo Tumor Uptake. To study the tumor uptake of ^99mTc-complexes, Tc-(Compound A-D and J-K), in vivo, biodistribution experiments at 1 h and 6 h after their administration were carried out in C57B16 mice with palpable B16 melanoma nodules. The biodistribution data including melanoma/nontumor (M/NT) ratios for selected organs are summarized in Table 4 and 5 as percentage injected dose per gram ([…]).
Animal Studies. All animal experiments were performed in compliance with the Principles of Laboratory Animal Care (NIH publication #85-23, revised 1985). Biodistribution studies and tumor-uptake measurements were performed in C57B16 mice (15 to 20 g) bearing the B16/F0 murine melanoma on the hind limb. See for example the studies described in, which are hereby incorporated by reference, Brandau, W.; Niehoff, T.; Pulawski, P.; Jonas, M.; Dutschka, K.; Sciuk, J.; Coenen, H. H.; Schober, O. Structure Distribution Relationship of Iodine-123-Iodobenzamides as Tracers for the Detection of Melanotic Melanoma. J. Nucl. Med. 1996, 37, 1865-1871; Mohanmmed, A.; Nicholl, C.; Titsch, U.; Eisenhut, M. Radiojodinated N-(Alkylaminoalkyl)-Substituted 4-Methoxy-, 4-Hydroxy-, and 4-Aminobenzamides: Biological Investigations for the Improvement of Melanoma-Imaging Agents. Nucl. Med. Biol. 1997, 24, 373-380; Titsch, U.; Mohammed, A.; Wagner, S.; Oberdorfer, F.; Eisenhut, M. Syntheses of N-(2-Diethylaminoethyl)benzamides Suitable for ^99mTc Complexation. J. Labelled Compd. Radiopharm. 1997, 40, 416-418; Dittmann, H.; Coenen, H. H.; Zölzer, F.; Dutschka, K.; Brandau, W.; Streffer, C. In Vitro Studies on the Cellular Uptake of Melanoma Imaging Aminoalkyl-iodobenzamide Derivatives (ABA). Nucl. Med. Biol. 1999, 26, 51-56; and Michelot, J. M.; Moreau, M. F. C.; Veyre, A. J.; Bonafous, J. F.; Bacin, F. J.; Madelmont, J. C.; Bussiere, F.; Souteyrand, P. A.; Mauclaire, L. P.; Chossat, F. M.; Papon, J. M.; Labarre, P. G.; Kauffmann, Ph.; Plagne, R. J. Phase II Scintigraphic Clinical Trial of Malignant Melanoma and Metastases with Iodine-123-N-(2-Diethylaminoethyl 4-Iodobenzamide). J. Nucl. Med. 1993, 34, 1260-1266. The tumor cells (B16/F0), obtained from ATCC, were washed with PBS and transplanted subcutaneously on the left hind flank by an inoculation of 0.5×10^6 cells (0.1 mL). Ten to 14 days later the animals developed palpable tumor nodules 3 to 5 mm in diameter. The biodistribution studies were carried out by tail-vein injection of 25 to 30 μCi (0.05 to 0.1 mL) of the ^99mTc-labeled complexes Tc-(Compound A-D, H, J, K or M). At the designated time after tail-vein administration, the animals were weighed and sacrificed. The organs and tumors were harvested and, when appropriate, blotted dry, weighed, and counted in a gamma counter along with technetium-99m standards of the injected dose. The results are expressed as % ID/g tissue (Table 4 and 5)

[5] = tested on: melanoma; conditions: 1 hour post injection; cited from earlier work
[6] = target: T1, σ2-receptors (Rattus norvegicus, UniProt Q5U3Y7); test: σ2-Receptor binding assay; conditions: σ2 vs σ1
T1 construct: Rat liver membranes were prepared from male Sprague-Dawley rat livers as previously described; from tissue; host or cells: male Sprague-Dawley rat liver membranes
T1 sequence (Q5U3Y7 1-176): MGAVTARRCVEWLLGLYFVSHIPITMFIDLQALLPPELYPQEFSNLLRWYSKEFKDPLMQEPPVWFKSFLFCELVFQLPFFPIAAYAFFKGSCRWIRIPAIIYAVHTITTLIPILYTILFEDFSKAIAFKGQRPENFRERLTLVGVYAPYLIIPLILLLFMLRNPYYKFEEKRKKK
Method: Receptor Binding Studies. To understand the involvement of receptor binding in the melanoma-cell uptake of these ^99mTc-complexes, we further investigated the affinity of these complexes in an established σ-receptor assay.
σ2-Receptor Binding Assay. Rat liver membranes were prepared from male Sprague-Dawley rat livers as previously described (Hellewell, S. B.; Bruce A.; Feinstein, G.; Orringer, J.; Williams, W.; Bowen, W. D. Rat Liver and Kidney Contain High Densities of σ1 and σ2 Receptors: Characterization by Ligand Binding and Photoaffinity Labeling. Eur. J. Pharmacol.-Mol. Pharmacol. Sect. 1994, 268, 9-18). […] Competition assays were performed with fifteen concentrations of the nonradioactive rhenium complexes ranging from 10^−10 to 10^−3 M and protein samples (0.15 mg membrane protein) in Tris-HCl (50 mM), pH 8.0, for 120 min at 25° C. in a 0.25-mL volume. All other manipulations and data analysis were performed as described vide supra for the σ1 receptor assay.

[7] = Determination of lipophilicity and pKa values by HPLC; format: physicochemical; conditions: HPLC method
Method: The physicochemical parameters of the rhenium complexes, i.e. lipophilicity log P, log D(pH 7.4), and pKa (Table 2) were determined using HPLC methods (Braumann, T.; Grimme, L. H. Determination of Hydrophobic Parameters for Pyridazinone Herbicides by Liquid-Liquid Partition and Reversed-Phase High-Performance Liquid Chromatography. J. Chromatogr. 1981, 206, 7-15; Stytli, C.; Theobald, A. E. Determination of Ionization Constants of Radiopharmaceuticals in Mixed Solvents by HPLC. Appl. Radiat. Isot., 1987, 38, 701-708; Johannsen, B.; Scheunemann, M.; Spies, H.; Brust, P.; Wober, J.; Syhre, R.; Pietzsch, H.-J. Technetium(V) and Rhenium(V) Complexes for 5-HT2A Serotonin Receptor Binding: Structure-Affinity Considerations. Nucl. Med. Biol., 1996, 23, 429-438; and Johannsen, B.; Berger, R.; Brust, P.; Pietzsch, H.-J; Scheunemann, M.; Seifert, S.; Spies, H.; Syhre, R. Structural Modification of Receptor-Binding Technetium-99m Complexes in Order to Improve Brain Uptake. Eur. J. Nucl. Med. 1997, 24, 316-319). […] Since log D(pH 7.4) is a composite measure of log P and pKa, the log D(PH 7.4) of Re-Compound B (1.9) is also higher than that of Re-Compound A (1.1). […] With pKa values >9 for complexes Re-Compound C and Re-Compound D, the resulting low log D(PH 7.4) values of −0.5 (Re-Compound C) and 0.7 (Re-Compound D) are not surprising, since the complexes would exist in a protonated form at pH 7.4.
Determination of Lipophilicity and pKa Values. The lipophilicity and pKa values of all complexes were determined using HPLC methods described previously (Stylli, C.; Theobald, A. E. Determination of Ionization Constants of 4 Radiopharmaceuticals in Mixed Solvents by HPLC. Appl. Radiat. Isot., 1987, 38, 701-708; Johannsen, B.; Scheunemann, M.; Spies, H.; Brust, P.; Wober, J.; Syhre, R.; Pietzsch, H.-J. Technetium(V) and Rhenium(V) Complexes for 5-HT2A Serotonin Receptor Binding: Structure-Affinity Considerations. Nucl. Med. Biol., 1996, 23, 429-438; and Johannsen, B.; Berger, R.; Brust, P.; Pietzsch, H.-J.; Scheunemann, M.; Seifert, S.; Spies, H.; Syhre, R. Structural Modification of Receptor-Binding Technetium-99m Complexes in Order to Improve Brain Uptake. Eur. J. Nucl. Med. 1997, 24, 316-319). […] The mobile phase was acetonitrile:phosphate buffer (0.01 M), 3:1, v/v, with the aqueous buffer adjusted to the desired pH between 3 and 11. The capacity factor (k′) was calculated for each determination (Braumann, T.; Grimme, L. H. Determination of Hydrophobic Parameters for Pyridazinone Herbicides by Liquid-Liquid Partition and Reversed-Phase High-Performance Liquid Chromatography. J. Chromatogr. 1981, 206, 7-15; El Tayer, N.; van der Waterbeemd, H.; Testa, B. Lipophilicity Measurements of Protonated Basic Compounds by Reversed-Phase High-Performance Liquid Chromatography. II. Procedure for the Determination of a Lipophilic Index Measured by Reversed-Phase High Performance Liquid Chromatography. J. Chromatogr. 1985, 320, 305-312; and Minick, D. J.; Frenz, J. H.; Patrick, M. A.; Brent, D. A. A Comprehensive Method for Determining Hydrophobicity Constants by Reversed-Phase High-Performance Liquid Chromatography. J. Med. Chem., 1988, 31, 1923-1933) and the partition coefficient at a given pH (D or log D) were calculated from the equation: log D=a log k′+b where the parameters a and b are predetermined using standard amines. The fitted points of inflection from the sigmoidal DHPLC/pH profiles permit calculation of the pKHPLC(Stylli, C.; Theobald, A. E. Determination of Ionization Constants of Radiopharmaceuticals in Mixed Solvents by HPLC. Appl. Radiat. Isot., 1987, 38, 701-708). The aqueous ionization constants pKa were calculated from the pKHPLC values after correction with a predetermined correction factor obtained using standard amine compounds. Log P values of the neutral complexes were estimated from the respective upper plateau of the sigmoidal log D/pH curve in the alkaline range.

## CCN(CC)CCCN1CC[S][99Tc]2(=[O])[S]CC[N]2C(=O)C1 (stereo not drawn) [Tc-(Compound C)]
[1]; 4° C. vs 37° C.
  decrease in cell uptake, incubation temperature from 37° C. to 4° C.: 77%
[1]; 37° C., B16/F0 cell line
  maximal cell uptake: 62%
[2]
  maximum cell uptake: 17%
[3]
  lower tumor-cell uptake after pre-incubation with DTG: 33%
[4]
  mel/blood ratio: 19
  mel/lung ratio: 12.7
  mel/spleen ratio: 19

## CCN(CC)CCNC(=O)c1ccc(CCNC2=[SH][Tc]3(#[N])([S]2)[S]C(NCCc2ccc(C(=O)NCCN(CC)CC)cc2)=[SH]3)cc1 [Compound 4]
[5]
  melanoma uptake: Compound 40.5% uptake % ID/g

## CCN(CC)CCCN1CC[S][Re]2(=[O])[S]CC[N]2C(=O)C1 (stereo not drawn) [Re-Compound C, [ReOAADT]-C3—NEt2]
[6]
  greater affinity toward the σ2-receptor subtype: 100 fold
[7]
  pKa: 9.2
[7]; pH 7.4
  log D(pH 7.4): −0.5

## CCN(CC)CCNC(=O)c1ccc(CC2[N]3CC(C)(C)[S][Tc]34(#[N])[S]C(C)(C)C[N]4C2(C)C)cc1 (stereo not drawn) [Compound 1]
[5]
  melanoma uptake: Compound 10.4% uptake % ID/g

From US7321027B2, “Small technetium-99m and rhenium labeled agents and methods for imaging tumors” (President and Fellows of Harvard College, priority 2000, dated 2008)
